# In ChEMBL document CHEMBL5532711, “Peniapyrones A-I, Cytotoxic Tricyclic-Fused α-Pyrone Derivatives from an Endophytic Penicillium brefeldianum F4a” (J Nat Prod, 2024):
# pIC50: −log10 of the molar value.
# Tests used:
# Assay type in all cases: functional, cell-based
# ASPC1 = assay: Cytotoxicity against human ASPC1 cells harboring KRAS G12D mutant assessed as inhibition of cell growth
# SNU-449 = assay: Cytotoxicity against human SNU-449 cells assessed as inhibition of cell growth
# MCF7 = assay: Cytotoxicity against human MCF7 cells assessed as inhibition of cell growth
structure (smiles),measurement,setting,value
Cc1cc2c(c(=O)o1)[C@]1(C)C=CC(=O)[C@@H]1[C@H](OC[C@H]1C(=O)CC[C@@H]1C)O2,pIC50,ASPC1,< 5.00
same,pIC50,SNU-449,< 5.00
same,pIC50,MCF7,< 5.00
C=C1[C@@H](O)C[C@H]2Oc3cc(C)oc(=O)c3[C@@]12C,pIC50,ASPC1,5.77
same,pIC50,SNU-449,5.57
same,pIC50,MCF7,6.70
CCO[C@@H]1Oc2cc(C)oc(=O)c2[C@]2(C)C=CC(=O)[C@H]12,pIC50,ASPC1,5.66
same,pIC50,SNU-449,5.85
same,pIC50,MCF7,6.15
Cc1cc2c(c(=O)o1)[C@@]1(C)[C@H](CO)[C@@H](O)C[C@H]1O2,pIC50,ASPC1,< 5.00
same,pIC50,SNU-449,5.06
same,pIC50,MCF7,5.26
CO[C@@H]1Oc2cc(C)oc(=O)c2[C@]2(C)C=CC(=O)[C@H]12,pIC50,ASPC1,< 5.00
same,pIC50,SNU-449,< 5.00
same,pIC50,MCF7,< 5.00
Cc1cc2c(c(=O)o1)[C@]1(C)C=CC(=O)[C@@H]1[C@H](O)O2,pIC50,ASPC1,5.77
same,pIC50,SNU-449,5.23
same,pIC50,MCF7,5.28
Cc1cc2c(c(=O)o1)[C@@]1(C)C=CC(=O)[C@H]1[C@@H](OC[C@H]1C(=O)CC[C@@H]1C)O2,pIC50,ASPC1,5.03
same,pIC50,SNU-449,5.92
same,pIC50,MCF7,6.10
Nc1ccn([C@@H]2O[C@H](CO)[C@@H](O)C2(F)F)c(=O)n1 [GEMCITABINE],pIC50,ASPC1,6.30
same,pIC50,SNU-449,< 5.00
Cc1cc2c(c(=O)o1)[C@@]1(C)CC(=O)C[C@H]1O2 (racemic),pIC50,ASPC1,5.54
same,pIC50,SNU-449,< 5.00
same,pIC50,MCF7,5.00
Cc1nc(Nc2ncc(C(=O)Nc3c(C)cccc3Cl)s2)cc(N2CCN(CCO)CC2)n1 [DASATINIB ANHYDROUS],pIC50,ASPC1,5.48
same,pIC50,MCF7,< 5.00
Cc1cc2c(c(=O)o1)[C@@]1(C)C[C@H](O)C[C@H]1O2,pIC50,ASPC1,5.82
same,pIC50,SNU-449,< 5.00
same,pIC50,MCF7,5.34
